# From patent US12447198B2, “Peptides and fragments for treating diabetes and associated metabolic diseases” (Betavive Ltd., priority 2021, dated 2025)
# Where no end group is shown, it is not given here.
# Columns and labels:
# STZ-treated mouse islets [1] = test: MTT viability of STZ-treated mouse islets; format: cell-based; conditions: increasing concentrations
# Source text: Yellow dye MTT is converted to a purple dye by mitochondrial reductase in viable cells. Therefore, the amount of purple dye present determined by measuring optical density of cells at 570 nm serves as a measurement of cell viability.
# β-MIN6 cells = test: Insulin secretion of β-MIN6 cells following glucose induction; format: cell-based, mouse; conditions: 1 week treatment; IGF-2 5 nM, 20 nM, 80 nM
# Source text: β-MIN6 cells serve as an in vitro model of mouse pancreatic islets. β-MIN6 cells were used as an in vitro model to measure the effects of treatment with IGF-2.
# STZ-treated mouse islets [2] = test: Insulin secretion from STZ-treated mouse islets; format: cell-based; conditions: islets treated with 2.5 mM STZ; 48 hours after treatment; IGF-2 50 nM and 500 nM, GLP-1 100 nM and 1000 nM
# Experimental: Mouse islet cells were treated with 2.5 mM STZ and subsequently treated with either IGF-2 (FA) at 50 nM and 500 nM, or with GLP-1 at 100 nM and 1000 nM.
# mice = test: Blood glucose concentration kinetics of IGF-2 vs. insulin in a glucose tolerance test; format: in vivo, mouse; conditions: insulin 1 unit per kg, IGF-2 800 μg/kg
# Source text: IGF-2 therefore provides an effect that mimics insulin within the body, and that effect is referred to herein as an “insulinomimetic” effect. […] In this example, administering IGF-2 can provide better results than administering insulin with respect to blood glucose levels, even when only a single dose was used. Without being bound by this theory, it is possible that the IGF-2 combines with a number of binding proteins in the blood and its active free form is then released slowly from the complex.
Substance,"mouse islet viability (MTT, optical density at 570 nm) (STZ-treated mouse islets [1])",insulin secretion following glucose induction (β-MIN6 cells),insulin secretion (STZ-treated mouse islets [2]),glucose level after administration (mice; glucose tolerance test in mice),time after which the recovery in glucose levels began (mice; single dose)
"GLP-1 (HAEGTFTSDVSSYLEGQAAKEFIAWLVKGR; ends and bridges not checked; UniProt P01275 98-127, looked up) [a satiety hormone, comparator in vitro, reference compound]",did not significantly increase mouse islet viability,does not increase insulin secretion,did not significantly increase insulin secretion,,
insulin [reference compound],,,,the glucose level decreased,after two hours
